Values quoted from earlier work in patent publication US8697660B2, “Compounds and compositions for treating infection” (International Patent Holdings LLC, priority 2011, dated 2014).

Test system: HIV-1

For Prunellin, the “minimum inhibition concentration against HIV-1 in vitro” value is given as 2.2 µg/mL.
